These results are taken from patent US9403747B2, “Methods and compositions for treating leukemia” (Golden Biotechnology Corporation, priority 2013, dated 2016).

For one series, the system named is Ras. The experiment in a line: Immunoblot of unprocessed and processed Ras in cancer cell lines. Conditions: H838 cells, 24 h. Type of series: cell-based, human. As for the experimental part: FIG. 2A-C show illustrative effective results of the exemplary Compound 1 inhibiting Ras processing in cancer cell lines. (2A) A549 and H838 cells were treated with different concentrations of Compound 1 and grown under serum (10% FBS) or serum-free (no FBS) conditions for 24 h. (2B) H838, (2C) HepG2 and K562 cells were treated with different concentrations of Compound 1 and grown under serum-free (no FBS) conditions for 24 h. Whole cell lysates were then immunoblotted with a Ras antibody. A duplicate membrane was probed with a GAPDH antibody. The relative expression level of unprocessed to processed Ras was quantified by densitometry. The experiments were conducted three times. […]
FIG. 3A-C show illustrative effective results of Compound 1 inhibiting the prenylation activity of farnesyltransferase in vitro and competes with FPP within cells. […] The relative expression level of unprocessed to processed Ras was quantified by densitometry. […]
Sixty micrograms of total protein lysates measured using a Bradford assay (Sigma-Aldrich, St. Louis, Mo., USA) were resolved on 12.5% SDS-polyacrylamide gels. […] Secondary antibodies were conjugated to horseradish peroxidase, which was detected using a 3,3′-diaminobenzidine substrate kit (Vector Laboratories, Burlingame, Calif.). The immunoreactive bands were quantified by densitometry using Image-Pro Plus software (Media Cybernetics, Silver Spring, Md.). […]
(A western blot detects proteins with antibodies after separation by electrophoresis.)

The test system of the next series is H838. The experiment in a line: CCK-8 cell viability assay, H838. Type of series: cell-based. As to conditions: Homo sapiens, NCI-H838, 48 h, 48 h treatment; means ± S.E.M. As for the experimental part:
Human hepatoma (HepG2, Hep3B), human lung adenocarcinoma (A549, H838), and human myelogenous leukemia (K562) cell lines were obtained from American Type Culture Collection (Rockville, Md., USA). Human prostate cancer cell lines (LNCaP and DU145), human breast carcinoma (MCF-7), human bladder carcinoma (TSGH 8301) and human pancreas adenocarcinoma (BxPC-3) were obtained from BCRC (Bioresource Collection and Research Center, Hsinchu, Taiwan). HepG2, DU145 and MCF-7 cell lines were cultured in Minimum Essential Medium Alpha (Invitrogen/Gibco BRL, Grand Island, N.Y., USA). A549 cells were cultured in Dulbecco's modified Eagle's medium (Invitrogen/Gibco BRL). […]
Cell viability was measured using Cell Counting Kit-8 (CCK-8, Enzo Life Sciences, Farmingdale, N.Y.). […] The concentration of formazan was measured with a spectrophotometer at an absorbance wavelength of 450 nm. Cell viability was expressed as a percentage of the corresponding control.
To determine whether the cytotoxic effects of Compound 1 correlate with the presence of Ras mutations, cell lines derived from human lung cancer (A549 and H838), liver cancer (HepG2 and Hep3B), and leukemia (K562 and THP-1) with wild-type Ras (H838, Hep3B, and K562) or mutant Ras (A549, HepG2, and THP-1) were used. Cell viability was measured after 48 h of Compound 1 treatment.

In another series the test system is THP-1 xenograft. The experiment in a line: THP-1 leukemia xenograft model. In kind it is in vivo, CB.17 SCID mice. As to conditions: 120 mg/kg PO twice per day, 5 days per week, 4 weeks. How it is done: Six to seven weeks old male CB.17 SCID mice were purchased from BioLasco Taiwan Co., LTD. and quarantined for one week. During experiment period, 5 mice will be housed in one cage. All animals will be hosted in the Da-Hu animal facility in a 12-h light/12-h dark cycle at 19-25° C. Animals have free access to rodent pellet food and water ad libitum. The experimental protocol of animal study was reviewed and approved by the Institutional Animal Care and Use Committee, DCB. Compound 1 was diluted in olive oil to final concentrations of 12 mg/mL.
Tumor cell line: THP-1 cells (leukemia) were cultured in RPMI-1640 medium or DMEM medium which supplemented with 10% heat inactivated fetal bovine serum. The cells were cultured in tissue culture flasks in a humidified incubator at 37° C., in an atmosphere of 5% CO2 and 95% air.
The human cancer cells used for implantation were harvested during log phase growth and resuspended in phosphate buffered saline to a concentration containing 2×10^7 cells/mL of THP-1, in 0.1 mL of a 50% Matrigel solution (BD Biosciences, MA, USA). […] Volume was calculated using the formula: Tumor Volume=(w^2×l)/2 where w=width and l=length in diameter (mm) of the tumor. […]
Tumors were measured twice per week using calipers. […] The body weight change was calculated as the percentage increase in body weight compared to the initial body weight. […]

As to `CC(C)=CCC/C(C)=C/CC/C(C)=C/COP(=O)(O)OP(=O)(O)O` [FPP], the “Ras processing, agent alone” value in the series on Ras is recorded as “potentiated Ras processing”. Moreover, the “FPP concentration neutralizing the effect of Compound 1 on Ras processing” value in the series on Ras (competition assay) was ≥ 10 µM. In the case of `COC1=C(OC)C(=O)C(C/C=C(\C)CC/C=C(\C)CCC=C(C)C)=C(C)C1=O` [Compound 25, 2,3-dimethoxy-5-methyl-6-((2E,6E)-3,7,11-trimethyldodeca-2,6,10-trienyl)cyclohexa-2,5-diene-1,4-dione], the IC50 – broadly, the concentration needed to halve the response being measured – with H838 was 22.6 ± 6.45 µM.

Turning to `COC1=C(OC)C(O)C(C/C=C(\C)CC/C=C(\C)CCC=C(C)C)C(C)C1=O` (stereo not shown) [Compound 1, 4-hydroxy-2,3-dimethoxy-6-methyl-5-(3,7,11-trimethyldodeca-2,6,10-trienyl)cyclohex-2-enone], the body weight entry with THP-1 xenograft was “almost no body weight changes”.
